Results from patent publication US10160785B2, “Antimicrobial peptides and their use for the treatment of topical infections” (priority 2015, dated 2018).

Tests used:
Micrococcus luteus = tested on: Micrococcus luteus
Experimental: (§1) Gram-positive bacteria (Micrococcus luteus, Bacillus subtilis, Staphylococcus aureus, Staphylococcus epidermidis and Enterococcus faecalis), Gram-negative bacteria (Escherichia coli and Pseudomonas aeruginosa) and the yeast (Candida albicans) were grown to exponential phase and then were diluted with fresh medium. BHI medium (Oxoid, Great Britain) was used for Enterococcus faecalis; YPD medium containing yeast extract peptone and glucose was used for Candida albicans and LB medium (Sigma, Czech Republic) was used for the remaining microorganisms. Then the microorganisms were added to the solutions of the tested antimicrobial peptides in LB medium in multi-well plates. The final peptide concentration it the wells was in the range of 0.1 to 100 μmol.l^−1. That was made by twofold serial dilution from the peptide stock solution (1 mmol.l^−1). The plates were incubated at 37° C. for 20 h while being continuously shaken in a Bioscreen C (Oy Growth Curves AB Ltd., Helsinki, Finland). Absorbance was measured at 540 nm every 15 min. Antimicrobial activity (Table 2) was determined as a quantitative minimum inhibitory concentration (MIC) by observing bacterial growth in the presence of different concentrations of tested peptides. In the experiments ca 10^5 CFU of bacteria or candida per well were routinely used.
(§2) Multiresistant clinical isolates of bacteria were obtained from University Hospital in Motol, Prague, Czech Republic and from Liberec Regional Hospital, Czech Republic. Methicillin resistant Staphylococcus aureus (MRSA) 6271 and Pseudomonas aeruginosa 5482 were from the Czech National Collection of Type Cultures, the National Institute of Public Health, Prague, Czech Republic. Other bacteria were from the Czech Collection of Microorganisms, Brno, Czech Republic. Candida albicans came from the Faculty of Medicine, Palacky University, Olomouc, Czech Republic.

[1] = tested on: Pseudomonas aeruginosa 5482; details: 37° C., 20 h
Experimental: as §1, §2

[2] = tested on: Pseudomonas aeruginosa Liberec; details: for Antimicrobial activity MIC P. a. Liberec: Pseudomonas aeruginosa Liberec, 37° C., 20 h
Experimental: as §1, §2

[3] = tested on: Methicillin resistant Staphylococcus aureus (MRSA) 6271; details: 37° C., 20 h
Experimental: as §1, §2

[4] = tested on: Enterococcus faecalis Motol; details: BHI medium, 37° C., 20 h
Experimental: as §1, §2

Escherichia coli = details: 37° C., 20 h
Experimental: as §1, §2

[5] = tested on: Staphylococcus aureus Motol; details: Staphylococcus aureus Motol clinical isolate; 37° C., 20 h
Experimental: as §1, §2

Bacillus subtilis = details: for Antimicrobial activity MIC B. s.: Bacillus subtilis, 37° C., 20 h
Experimental: as §1, §2

[6] = tested on: Staphylococcus epidermidis Motol; details: 37° C., 20 h
Experimental: as §1, §2

[7] = tested on: Staphylococcus aureus Liberec; details: for Antimicrobial activity MIC S. a. Liberec: Staphylococcus aureus Liberec clinical isolate, 37° C., 20 h
Experimental: as §1, §2

Candida albicans Olomouc = details: for Antimicrobial activity MIC C. a. Olomouc: Candida albicans Olomouc, YPD medium, 37° C., 20 h (Example 2)
Experimental: as §1, §2

Candida krusei ATCC 6258 = test: microbe, parasite or virus in culture; type: cell-based; details: RPMI broth microdilution, 35° C., 48 hours, visual
Experimental: (§3) All yeasts Candida albicans (Olomouc) and ATCC MYA-2876, Candida glabrata ATCC 2001 and DSY 565, Candida dubliniensis ATCC MYA-646, Candida krusei ATCC 6258 and Candida tropicalis ATCC 750 were sub-cultured from sterile vials onto Sabouraud dextrose agar, which was composed of 40 g dextrose (Penta, Czech Republic), 10 g peptone (OXOID, Great Britain) and 17 g agar (OXOID), dissolved in 1 l of distilled water, and cultivated for 24 hours at 35° C.
(§4) All strains were stored in a way that minimizes the possibility of mutation. Candida spp. were grown overnight in liquid YPD medium which is composed of 10 g yeast extract (DIFCO, USA), 20 g peptone (OXOID), and 20 g dextrose (Penta) dissolved in 1 l distilled water. Then the overnight culture was cryogenically preserved by suspending in 50% glycerol solution (1:1) in small vials and stored at −80° C.
(§5) The inoculum was prepared by picking five colonies from 24-hour-old cultures of Candida spp. The colonies were suspended in 1 ml of sterile saline solution and vortexed for 15 seconds. Optical density of the suspension was adjusted spectrophotometrically by adding sterile saline solution to produce optical density of 0.18 at 600 nm. A working suspension was made by a 1:50 dilution followed by a 1:20 dilution of the stock suspension with RPMI 1640 broth medium which was composed of L-glutamine without NaHCO3 (BioSera, France), and with 0.165 mol.l^−1 MOPS (Duchefa, Netherland)—further as RPMI broth medium.
(§6) The broth microdilution test was performed by using sterile, disposable, multi-well microdilution plates (96-well). The peptides in the concentrations 0.625-160 μmol.l^−1 were pipetted into the wells in 100 μl volumes. Each well of the plate was inoculated with 100 μl of the diluted inoculum suspension. Final yeast density in each well was 5×10^2 up to 2.5×10^3 CFU/ml. The microdilution plates were incubated without shaking at 35° C. and observed for the presence or absence of visible growth for 48 hours.
(§7) Drug-free medium without inoculation served as negative control; the growth positive control contained inoculated drug-free medium. Amphotericin B was used as control drug to ensure quality of Candida strains.
(§8) The minimal inhibition concentrations (MICs) were visually determined 48 hours after inoculation. The MIC values were defined as the lowest concentration in which no observable growth is noticeable.
(§9) All yeast isolates were obtained from the Institute of Physiology of the Academy of Sciences of the Czech Republic. Candida albicans (Olomouc) came from the Faculty of Medicine and Dentistry, Palacý University Olomouc.

[8] = tested on: Candida albicans ATCC MYA-2876; test: microbe, parasite or virus in culture; type: cell-based; details: RPMI broth microdilution, 35° C., 48 hours, visual
Experimental: as §3, §4, §5, §6, §7, §8, §9

[9] = tested on: Candida dubliniensis ATCC MYA-646; test: microbe, parasite or virus in culture; type: cell-based; details: RPMI broth microdilution, 35° C., 48 hours, visual
Experimental: as §3, §4, §5, §6, §7, §8, §9

Candida glabrata DSY 565 = test: microbe, parasite or virus in culture; type: cell-based; details: RPMI broth microdilution, 35° C., 48 hours, visual
Experimental: as §3, §4, §5, §6, §7, §8, §9

[10] = tested on: Candida tropicalis ATCC 750; test: microbe, parasite or virus in culture; type: cell-based; details: RPMI broth microdilution, 35° C., 48 hours, visual
Experimental: as §3, §4, §5, §6, §7, §8, §9

[11] = tested on: Candida albicans (Olomouc); test: microbe, parasite or virus in culture; type: cell-based; details: RPMI broth microdilution, 35° C., 48 hours, visual
Experimental: as §3, §4, §5, §6, §7, §8, §9

[12] = tested on: Candida glabrata ATCC 2001; test: microbe, parasite or virus in culture; type: cell-based; details: RPMI broth microdilution, 35° C., 48 hours, visual
Experimental: as §3, §4, §5, §6, §7, §8, §9

in vitro = details: human
Experimental: The peptides in the concentrations 2-200 μmol.l^−1 were incubated with the suspension of human red blood cells (5% v/v) for 1 h at 37° C. in a physiological solution at a final volume of 0.2 ml. The samples were then centrifuged for 5 min at 250 g, and the absorbance of the supernatant was determined at 540 nm. Supernatants of red blood cells suspended in physiological solution and in 0.2% (v/v) TRITON X100 in physiological solution served as controls for zero hemolysis (blank) and 100% hemolysis, respectively. Hemolytic activity is expressed as the peptide concentration required for lysis of 50% of human erythrocytes in the assay (LC50).

P. aeruginosa (Liberec) = test: Synergistic effect of peptides with antibiotics, FIC index; type: cell-based, Pseudomonas aeruginosa; details: FIC <0.5 synergism, 0.5-2 additive, >2 antagonism, averages of three experiments; for FIC indexes (fractional inhibitory concentration) Combination with RIF against P. aeruginosa: peptide combined with rifampicin; for FIC indexes (fractional inhibitory concentration) Combination with TET against P. aeruginosa: peptide combined with tetracycline
Experimental: MICs values of various combinations of two fold serial dilutions of peptides and antibiotics were determined using the same methodology as in the case of antimicrobial activity determination (Example 2). To consider the type of the final effect, FIC indexes (fractional inhibitory concentration) were used and calculated as follows:
[formula] where MICPC and MICAC are the MICs of the peptide and antibiotic in combination, respectively, and MICP and MICA are the MICs of the peptide and antibiotic tested alone, respectively. FIC<0.5 were considered as synergy, 0.5≤FIC≤2 as addition effect, and FIC>2 as antagonism.

[13] = synthetically prepared hylanine, in words

Compound: CN(C)[C@@H]1C(=O)C(C(N)=O)=C(O)[C@@]2(O)C(=O)C3=C(O)c4c(O)cccc4[C@@](C)(O)[C@H]3C[C@@H]12 [Tetracyklin, Tetracycline, reference compound]
- Antimicrobial activity MIC M. l. (Micrococcus luteus; Micrococcus luteus, 37° C., 20 h): 0.8 µM
- Antimicrobial activity MIC P. a. 5482 [1]: 28.7 µM
- Antimicrobial activity MIC P. a. Liberec [2]: 70.4 µM
- Antimicrobial activity MIC S. a. 6271 [3]: 0.9 µM
- Antimicrobial activity MIC E. f. Motol [4]: 40.0 µM
- Antimicrobial activity MIC E. c. (Escherichia coli): 2.7 µM
- Antimicrobial activity MIC S. a. Motol [5]: 2.0 µM
- Antimicrobial activity MIC B. s. (Bacillus subtilis): 16.0 µM
- Antimicrobial activity MIC S. e. Motol [6]: >100 µM
- Antimicrobial activity MIC S. a. Liberec [7]: 1.1 µM

Compound: H-GIMSSLMKKLAAHIAK-NH2 [hylanine, reference compound]
- antimicrobial activity against Micrococcus luteus (Micrococcus luteus; [13]): high antimicrobial activity
- activity against Pseudomonas aeruginosa ([2]; all strains, in words): weak
- activity against the yeast Candida albicans (Candida albicans Olomouc; [13]): moderate activity
- antimicrobial activity against Bacillus subtilis (Bacillus subtilis; [13]): high antimicrobial activity
- activity against Staphylococcus aureus ([7]; all strains of pathogenic Staphylococcus aureus, in words): weak

Compound: H-GILSSLWKKLKKWIAK-NH2 [XVII]
- Antifungal activity MIC C. krusei ATCC 6258 (Candida krusei ATCC 6258): 3.3 µM
- Antifungal activity MIC C. albicans ATCC MYA-2876 [8]: 5.5 µM
- Antifungal activity MIC C. dubliniensis ATCC MYA-646 [9]: 5.0 µM
- Antifungal activity MIC C. glabrata DSY 565 (Candida glabrata DSY 565): 11.0 µM
- Antifungal activity MIC C. tropicalis ATCC 750 [10]: 0.8 µM
- Antifungal activity MIC C. albicans Olomouc [11]: 4.5 µM
- Antifungal activity MIC C. glabrata ATCC 2001 [12]: 5.5 µM
- Antimicrobial activity MIC P. a. 5482 [1]: 12.7 µM
- Antimicrobial activity MIC P. a. Liberec [2]: 24.1 µM
- Antimicrobial activity MIC S. a. 6271 [3]: 2.5 µM
- Antimicrobial activity MIC E. f. Motol [4]: 10.0 µM
- Antimicrobial activity MIC C. a. Olomouc (Candida albicans Olomouc): 12.7 µM
- Antimicrobial activity MIC E. c. (Escherichia coli): 2.5 µM
- Antimicrobial activity MIC S. a. Motol [5]: 2.0 µM
- Antimicrobial activity MIC B. s. (Bacillus subtilis): 1.3 µM
- Antimicrobial activity MIC S. e. Motol [6]: 1.6 µM
- Antimicrobial activity MIC S. a. Liberec [7]: 1.6 µM
- HC50 at 1 h (in vitro): 57.2 µM
- FIC indexes (fractional inhibitory concentration) Combination with RIF against P. aeruginosa (P. aeruginosa (Liberec)): 0.292
- FIC indexes (fractional inhibitory concentration) Combination with TET against P. aeruginosa (P. aeruginosa (Liberec)): 0.417

Compound: H-GILSSLLKKLKKWIAK-NH2 [XVIII]
- Antifungal activity MIC C. krusei ATCC 6258 (Candida krusei ATCC 6258): 7.8 µM
- Antifungal activity MIC C. albicans ATCC MYA-2876 [8]: 10.0 µM
- Antifungal activity MIC C. dubliniensis ATCC MYA-646 [9]: 10.0 µM
- Antifungal activity MIC C. glabrata DSY 565 (Candida glabrata DSY 565): 24.0 µM
- Antifungal activity MIC C. tropicalis ATCC 750 [10]: 1.2 µM
- Antifungal activity MIC C. albicans Olomouc [11]: 8.5 µM
- Antifungal activity MIC C. glabrata ATCC 2001 [12]: 8.5 µM
- Antimicrobial activity MIC P. a. 5482 [1]: 8.0 µM
- Antimicrobial activity MIC P. a. Liberec [2]: 20.7 µM
- Antimicrobial activity MIC S. a. 6271 [3]: 8.0 µM
- Antimicrobial activity MIC E. f. Motol [4]: 25.3 µM
- Antimicrobial activity MIC C. a. Olomouc (Candida albicans Olomouc): 16.0 µM
- Antimicrobial activity MIC E. c. (Escherichia coli): 4.0 µM
- Antimicrobial activity MIC S. a. Motol [5]: 4.0 µM
- Antimicrobial activity MIC B. s. (Bacillus subtilis): 1.3 µM
- Antimicrobial activity MIC S. e. Motol [6]: 1.6 µM
- Antimicrobial activity MIC S. a. Liberec [7]: 2.5 µM
- HC50 at 1 h (in vitro): 160 µM
- FIC indexes (fractional inhibitory concentration) Combination with RIF against P. aeruginosa (P. aeruginosa (Liberec)): 0.271
- FIC indexes (fractional inhibitory concentration) Combination with TET against P. aeruginosa (P. aeruginosa (Liberec)): 0.625
